From US8530489B2 (Vertex Pharmaceuticals Incorporated, priority 2006, dated 2013) come the findings set out here.

Molecules are shown by their SMILES.

Sequence of PLK2 (Q9NYY3 whole entry): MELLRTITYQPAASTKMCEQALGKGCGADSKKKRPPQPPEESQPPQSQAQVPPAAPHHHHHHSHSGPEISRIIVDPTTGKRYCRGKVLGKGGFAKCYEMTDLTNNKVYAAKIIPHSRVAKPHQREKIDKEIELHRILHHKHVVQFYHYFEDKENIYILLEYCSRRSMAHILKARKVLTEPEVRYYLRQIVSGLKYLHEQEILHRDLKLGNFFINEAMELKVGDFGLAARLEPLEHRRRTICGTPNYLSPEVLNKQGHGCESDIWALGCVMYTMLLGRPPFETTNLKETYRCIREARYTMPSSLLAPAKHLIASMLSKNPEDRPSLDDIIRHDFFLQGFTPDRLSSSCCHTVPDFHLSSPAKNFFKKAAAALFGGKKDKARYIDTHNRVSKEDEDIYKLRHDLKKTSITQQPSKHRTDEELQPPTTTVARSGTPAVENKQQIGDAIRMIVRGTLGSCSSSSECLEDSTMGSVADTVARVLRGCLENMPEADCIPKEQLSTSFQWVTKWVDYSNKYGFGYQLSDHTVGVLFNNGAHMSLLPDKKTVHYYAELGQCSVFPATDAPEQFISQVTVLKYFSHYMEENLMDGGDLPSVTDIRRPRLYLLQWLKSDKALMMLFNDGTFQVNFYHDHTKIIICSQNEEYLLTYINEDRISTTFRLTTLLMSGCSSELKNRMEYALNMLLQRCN

The target in the first test is PLK1 (Homo sapiens, UniProt P53350). As to the kind of experiment: PLK1 Inhibition Assay I (radioactive-phosphate incorporation). Format: biochemical. The settings on record: Ki(app); PLK1 Inhibition Assay I or II (table does not say which). The gist of the method: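 Ki(app) values came from non-linear regression of initial rates after background subtraction, with phosphopeptide measured by phosphocellulose filter binding and scintillation counting. PLK1 at 2 nM was preincubated with compound (typically from 10 μM, 2-fold dilutions) for 10 min, then run 240 min at 25° C with 350 μM [γ-33P]ATP and 450 μM peptide substrate in HEPES pH 7.5 buffer.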
Sequence of PLK1 (P53350 whole entry): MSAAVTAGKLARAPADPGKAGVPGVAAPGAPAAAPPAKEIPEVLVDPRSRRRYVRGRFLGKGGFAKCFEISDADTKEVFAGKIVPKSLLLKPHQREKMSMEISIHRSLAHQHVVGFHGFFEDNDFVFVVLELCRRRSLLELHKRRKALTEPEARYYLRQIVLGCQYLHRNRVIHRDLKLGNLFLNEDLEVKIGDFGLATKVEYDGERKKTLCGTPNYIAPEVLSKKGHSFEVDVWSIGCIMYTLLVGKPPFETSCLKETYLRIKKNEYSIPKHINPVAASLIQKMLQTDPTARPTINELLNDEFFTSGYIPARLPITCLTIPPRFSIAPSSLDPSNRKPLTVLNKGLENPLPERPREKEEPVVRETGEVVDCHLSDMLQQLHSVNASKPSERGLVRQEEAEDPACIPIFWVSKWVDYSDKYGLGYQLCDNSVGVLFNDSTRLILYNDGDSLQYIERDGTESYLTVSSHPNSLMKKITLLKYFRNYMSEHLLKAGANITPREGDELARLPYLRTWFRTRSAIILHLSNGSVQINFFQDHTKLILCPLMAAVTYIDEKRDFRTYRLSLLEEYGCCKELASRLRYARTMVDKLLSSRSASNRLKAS
Regarding `C[C@@H]1CN(c2ccc([C@@H](C)Nc3ncc(C#N)c(-c4c[nH]c5ncc(C(F)(F)F)cc45)n3)cn2)CCN1` [Compound I-274, 2-((R)-1-(6-((R)-3-methylpiperazin-1-yl)pyridin-3-yl)ethylamino)-4-(5-(trifluoromethyl)-1H-pyrrolo[2,3-b]pyridin-3-yl)pyrimidine-5-carbonitrile], the Ki is < 3 nM. On the same count and under the same terms, as for `C[C@@H](Nc1ncc(C#N)c(-c2c[nH]c3ncc(C(F)(F)F)cc23)n1)c1ccc(N2CCNCC2)nc1` [Compound I-267, 2-((R)-1-(6-(piperazin-1-yl)pyridin-3-yl)ethylamino)-4-(5-(trifluoromethyl)-1H-pyrrolo[2,3-b]pyridin-3-yl)pyrimidine-5-carbonitrile], the figure is < 3 nM; as for `CC(Nc1ncc(C#N)c(-c2c[nH]c3ncc(C(F)(F)F)cc23)n1)C1CCN(C(=O)CO)CC1` (stereo not shown) [Compound I-192, 2-(1-(1-(2-hydroxyacetyl)piperidin-4-yl)ethylamino)-4-(5-(trifluoromethyl)-1H-pyrrolo[2,3-b]pyridin-3-yl)pyrimidine-5-carbonitrile], < 3 nM. On the same count and under the same terms, as for `N#Cc1cnc(NC2CCc3ccccc32)nc1-c1c[nH]c2ncc(C(F)(F)F)cc12` (stereo not shown) [Compound I-38, 2-(2,3-dihydro-1H-inden-1-ylamino)-4-(5-(trifluoromethyl)-1H-pyrrolo[2,3-b]pyridin-3-yl)pyrimidine-5-carbonitrile], the figure is > 40 nM; as for `C#CCN1CCC(C(C)Nc2ncc(C#N)c(-c3c[nH]c4ncc(C(F)(F)F)cc34)n2)CC1` (stereo not shown) [Compound I-178, 2-(1-(1-(prop-2-ynyl)piperidin-4-yl)ethylamino)-4-(5-(trifluoromethyl)-1H-pyrrolo[2,3-b]pyridin-3-yl)pyrimidine-5-carbonitrile], 3 to 40 nM. The same measure, in the same setting: as for `CC(=O)Nc1ccc(C(C)Nc2ncc(C#N)c(-c3c[nH]c4ncc(C(F)(F)F)cc34)n2)cc1` (stereo not shown) [Compound I-121, N-(4-(1-(5-cyano-4-(5-(trifluoromethyl)-1H-pyrrolo[2,3-b]pyridin-3-yl)pyrimidin-2-ylamino)ethyl)phenyl)acetamide], the figure is < 3 nM; as for `C[C@@H](O)CNc1ncc(C#N)c(-c2c[nH]c3ncc(C(F)(F)F)cc23)n1` [Compound I-97, 2-((R)-2-hydroxypropylamino)-4-(5-(trifluoromethyl)-1H-pyrrolo[2,3-b]pyridin-3-yl)pyrimidine-5-carbonitrile], 3 to 40 nM; as for `N#Cc1cnc(NCc2ccc(C(F)(F)F)nc2)nc1-c1c[nH]c2ncc(C(F)(F)F)cc12` [Compound I-32, 4-(5-(trifluoromethyl)-1H-pyrrolo[2,3-b]pyridin-3-yl)-2-((6-(trifluoromethyl)pyridin-3-yl)methylamino)pyrimidine-5-carbonitrile], > 40 nM. With `CNCCCN(C)c1ccc([C@@H](C)Nc2ncc(C#N)c(-c3c[nH]c4ncc(C(F)(F)F)cc34)n2)cn1` [Compound I-289, 2-((R)-1-(6-(methyl(3-(methylamino)propyl)amino)pyridin-3-yl)ethylamino)-4-(5-(trifluoromethyl)-1H-pyrrolo[2,3-b]pyridin-3-yl)pyrimidine-5-carbonitrile], the Ki is < 3 nM. The same measure, in the same setting: then `N#Cc1cnc(N2CCC[C@@H]2CN)nc1-c1c[nH]c2ncc(C(F)(F)F)cc12` [Compound I-87, 2-((R)-2-(aminomethyl)pyrrolidin-1-yl)-4-(5-(trifluoromethyl)-1H-pyrrolo[2,3-b]pyridin-3-yl)pyrimidine-5-carbonitrile], with > 40 nM; and `CCCC(C)Sc1ncc(C#N)c(-c2c[nH]c3ncc(C(F)(F)F)cc23)n1` (stereo not shown) [II-16, 2-(pentan-2-ylthio)-4-(5-(trifluoromethyl)-1H-pyrrolo[2,3-b]pyridin-3-yl)pyrimidine-5-carbonitrile], with > 40 nM; and `C[C@@H](Nc1ncc(C#N)c(-c2c[nH]c3ncc(C(F)(F)F)cc23)n1)C1CCN(C(=O)[C@H]2C[C@H](O)CN2)CC1` [Compound I-263, 2-((R)-1-(1-((2R,4S)-4-hydroxypyrrolidine-2-carbonyl)piperidin-4-yl)ethylamino)-4-(5-(trifluoromethyl)-1H-pyrrolo[2,3-b]pyridin-3-yl)pyrimidine-5-carbonitrile], with < 3 nM. Consider `CC(Nc1ncc(C#N)c(-c2c[nH]c3ncc(C(F)(F)F)cc23)n1)c1ccc(N2CC(O)(C3CC3)C2)nc1` (stereo not shown) [Compound I-194, 2-(1-(6-(3-cyclopropyl-3-hydroxyazetidin-1-yl)pyridin-3-yl)ethylamino)-4-(5-(trifluoromethyl)-1H-pyrrolo[2,3-b]pyridin-3-yl)pyrimidine-5-carbonitrile], for which the Ki is 3 to 40 nM. Still for that read-out and setting: as for `CC(C)(C)Nc1ncc(C#N)c(-c2c[nH]c3ncc(C(F)(F)F)cc23)n1` [Compound I-4, 2-(tert-butylamino)-4-(5-(trifluoromethyl)-1H-pyrrolo[2,3-b]pyridin-3-yl)pyrimidine-5-carbonitrile], the figure is > 40 nM; as for `N#Cc1cnc(Sc2cccc(Cl)c2)nc1-c1c[nH]c2ncc(C(F)(F)F)cc12` [II-6, 2-(3-chlorophenylthio)-4-(5-(trifluoromethyl)-1H-pyrrolo[2,3-b]pyridin-3-yl)pyrimidine-5-carbonitrile], > 40 nM; as for `C[C@@H](Nc1ncc(C#N)c(-c2c[nH]c3ncc(C(F)(F)F)cc23)n1)C1CCN(C(=O)CCN)CC1` [Compound I-224, 2-((R)-1-(1-(3-aminopropanoyl)piperidin-4-yl)ethylamino)-4-(5-(trifluoromethyl)-1H-pyrrolo[2,3-b]pyridin-3-yl)pyrimidine-5-carbonitrile], < 3 nM. The same measure, in the same setting: as for `C[C@@H](Nc1ncc(C#N)c(-c2c[nH]c3ncc(C(F)(F)F)cc23)n1)c1ccc(O)cc1` [Compound I-99, 2-((R)-1-(4-hydroxyphenyl)ethylamino)-4-(5-(trifluoromethyl)-1H-pyrrolo[2,3-b]pyridin-3-yl)pyrimidine-5-carbonitrile], the figure is < 3 nM; as for `COCC(=O)N1CCC(C(C)Nc2ncc(C#N)c(-c3c[nH]c4ncc(C(F)(F)F)cc34)n2)CC1` (stereo not shown) [Compound I-183, 2-(1-(1-(2-methoxyacetyl)piperidin-4-yl)ethylamino)-4-(5-(trifluoromethyl)-1H-pyrrolo[2,3-b]pyridin-3-yl)pyrimidine-5-carbonitrile], < 3 nM; as for `C[C@@H](Nc1ncc(C#N)c(-c2c[nH]c3ncc(C(F)(F)F)cc23)n1)c1ccc(N2CCN(Cc3ccccc3)CC2)cc1` [Compound I-130, 2-((R)-1-(4-(4-benzylpiperazin-1-yl)phenyl)ethylamino)-4-(5-(trifluoromethyl)-1H-pyrrolo[2,3-b]pyridin-3-yl)pyrimidine-5-carbonitrile], < 3 nM.

`CNC(=O)N1CCC(C(C)Nc2ncc(C#N)c(-c3c[nH]c4ncc(C(F)(F)F)cc34)n2)CC1` (stereo not shown) [Compound I-160, 4-(1-(5-cyano-4-(5-(trifluoromethyl)-1H-pyrrolo[2,3-b]pyridin-3-yl)pyrimidin-2-ylamino)ethyl)-N-methylpiperidine-1-carboxamide]: the Ki is < 3 nM. Regarding `C[C@@H](Nc1ncc(C#N)c(-c2c[nH]c3ncc(C(F)(F)F)cc23)n1)c1ccc(NCCN2CCCC2)nc1` [Compound I-223, 2-((R)-1-(6-(2-(pyrrolidin-1-yl)ethylamino)pyridin-3-yl)ethylamino)-4-(5-(trifluoromethyl)-1H-pyrrolo[2,3-b]pyridin-3-yl)pyrimidine-5-carbonitrile], the Ki lay within 3 to 40 nM. On to `CC(Nc1ncc(C#N)c(-c2c[nH]c3ncc(C(F)(F)F)cc23)n1)C1CN(C(=O)[C@@H](C)O)C1` (stereo partly drawn) [Compound I-222, 2-(1-(1-((R)-2-hydroxypropanoyl)azetidin-3-yl)ethylamino)-4-(5-(trifluoromethyl)-1H-pyrrolo[2,3-b]pyridin-3-yl)pyrimidine-5-carbonitrile], for which the Ki was < 3 nM. Same read-out and setting: then `CC(C)[C@@H](CO)Nc1ncc(C#N)c(-c2c[nH]c3ncc(C(F)(F)F)cc23)n1` [Compound I-58, 2-((S)-1-hydroxy-3-methylbutan-2-ylamino)-4-(5-(trifluoromethyl)-1H-pyrrolo[2,3-b]pyridin-3-yl)pyrimidine-5-carbonitrile], with 3 to 40 nM.

A further test concerns the target PLK2 (Homo sapiens, UniProt Q9NYY3). As to the kind of experiment: PLK2 Inhibition Assay (radioactive-phosphate incorporation). The settings on record: selectivity ratio, PLK2 over PLK1. The class given is biochemical. The method, then: The compounds of the present invention are evaluated as inhibitors of human PLK kinase using the following assays.
Compounds were screened for their ability to inhibit PLK2 using a radioactive-phosphate incorporation assay. Assays were carried out in a mixture of 25 mM HEPES (pH 7.5), 10 mM MgCl2, 0.1% BSA, and 2 mM DTT. Final substrate concentrations were 200 μM [γ-33P]ATP (57 mCi 33P ATP/mmol ATP, Amersham Pharmacia Biotech/Sigma Chemicals) and 300 μM peptide (KKKISDELMDATFADQEAK) [SEQ ID:3]. Assays were carried out at 25° C. in the presence of 25 nM PLK2. An assay stock buffer solution was prepared containing all of the reagents listed above, with the exception of ATP and the test compound of interest. 30 μL of the stock solution was placed in a 96 well plate followed by addition of 2 μL of DMSO stock containing serial dilutions of the test compound (typically starting from a final concentration of 10 μM with 2-fold serial dilutions) in duplicate (final DMSO concentration 5%). The plate was pre-incubated for 10 minutes at 25° C. and the reaction initiated by addition of 8 μL [γ-33P]ATP (final concentration 200 μM).
The reaction was stopped after 90 minutes by the addition of 100 μL 0.14 M phosphoric acid. A multiscreen phosphocellulose filter 96-well plate (Millipore, Cat No. MAPHN0B50) was pretreated with 100 μL 0.2M phosphoric acid prior to the addition of 125 μL of the stopped assay mixture. The plate was washed with 4×200 μL 0.2 M phosphoric acid. After drying, 100 μL Optiphase ‘SuperMix’ liquid scintillation cocktail (Perkin Elmer) was added to the well prior to scintillation counting (1450 Microbeta Liquid Scintillation Counter, Wallac).
After removing mean background values for all of the data points, Ki(app) data were calculated from non-linear regression analysis of the initial rate data using the Prism software package (GraphPad Prism version 3.0cx for Macintosh, GraphPad Software, San Diego Calif., USA).
For the compound `C[C@@H]1CN(c2ccc([C@@H](C)Nc3ncc(C#N)c(-c4c[nH]c5ncc(C(F)(F)F)cc45)n3)cn2)CCN1` [Compound I-274, 2-((R)-1-(6-((R)-3-methylpiperazin-1-yl)pyridin-3-yl)ethylamino)-4-(5-(trifluoromethyl)-1H-pyrrolo[2,3-b]pyridin-3-yl)pyrimidine-5-carbonitrile], the “Ki(PLK2)/Ki(PLK1)” value was 4074. The same measure, in the same setting: then `C[C@@H](Nc1ncc(C#N)c(-c2c[nH]c3ncc(C(F)(F)F)cc23)n1)c1ccc(N2CCNCC2)nc1` [Compound I-267, 2-((R)-1-(6-(piperazin-1-yl)pyridin-3-yl)ethylamino)-4-(5-(trifluoromethyl)-1H-pyrrolo[2,3-b]pyridin-3-yl)pyrimidine-5-carbonitrile], with 1152.
